From ChEMBL document CHEMBL1629707, “Naphthalimide based novel organoselenocyanates: finding less toxic forms of selenium that would retain protective efficacy” (Bioorg Med Chem Lett, 2010)

Experiments:
Mus musculus [1] = experiment: Hepatotoxicity in Swiss albino mouse assessed as plasma ALT level at 3 mg/kg, po after 30 days (reference value: 66.00+/-4.18 U/mL); format: toxicity, organism-based; design: dose 3 mg/kg, route oral; conditions: in vivo, 720 h
[2] = Toxicity in po dosed Swiss albino mouse; format: organism-based; conditions: in vivo
Mus musculus [3] = experiment: Increase of GSH level in Swiss albino mouse liver assessed per mg of protein at 3 mg/kg, po after 30 days (reference value: 46.87+/-1.88 nmol); format: functional
Mus musculus [4] = experiment: Hepatotoxicity in Swiss albino mouse assessed as plasma AST level at 3 mg/kg, po after 30 days (reference value: 179.00+/-4.18 U/mL); format: toxicity, organism-based; design: dose 3 mg/kg, route oral; conditions: in vivo, 720 h
Mus musculus [5] = experiment: Toxicity in Swiss albino mouse assessed as loss of body weight at 3 mg/kg, po administered for 30 days; format: organism-based; design: dose 3 mg/kg, route oral; conditions: in vivo, 720 h
Mus musculus [6] = experiment: Toxicity in Swiss albino mouse assessed as decrease in final body weight at 1.2 mg/kg, po administered for 30 days; format: organism-based; design: dose 1.2 mg/kg, route oral; conditions: in vivo, 720 h
Mus musculus [7] = experiment: Hepatotoxicity in Swiss albino mouse assessed as TBARS production per mg of protein at 3 mg/kg, po after 30 days (reference value: 0.26+/-0.02 nmol); format: toxicity, organism-based; design: dose 3 mg/kg, route oral; conditions: in vivo, 720 h
Mus musculus [8] = experiment: Toxicity in Swiss albino mouse assessed as hemoglobin level at 3 mg/kg, po after 30 days (reference value: 12.56+/-0.43 gm/dL); format: organism-based; design: dose 3 mg/kg, route oral; conditions: in vivo, 720 h
Mus musculus [9] = experiment: Nephrotoxicity in Swiss albino mouse assessed as serum creatinine level at 3 mg/kg, po after 30 days (reference value: 9.40+/-0.48 mg/dL); format: toxicity, organism-based; design: dose 3 mg/kg, route oral; conditions: in vivo, 720 h
Mus musculus [10] = experiment: Nephrotoxicity in Swiss albino mouse assessed as BUN level at 3 mg/kg, po after 30 days (reference value: 21.57+/-0.92 mg/dL); format: toxicity, organism-based; design: dose 3 mg/kg, route oral; conditions: in vivo, 720 h
Mus musculus [11] = experiment: Increase of GST level in Swiss albino mouse liver assessed as CDNB-GSH conjugate per mg of protein at 3 mg/kg, po after 30 days (reference value: 95.66+/-4.0 nmol/min); format: functional
[12] = Induction of chromosomal aberration in Swiss albino mouse bone marrow cell at 3 mg/kg, po after 30 days (reference value: 14.88+/-0.99 %); format: organism-based; design: dose 3 mg/kg, route oral; conditions: in vivo, 720 h
Mus musculus [13] = experiment: Increase of SOD level in Swiss albino mouse liver assessed per mg of protein at 3 mg/kg, po after 30 days (reference value: 250.16+/-7.46 U); format: functional
Mus musculus [14] = experiment: Increase of CAT level in Swiss albino mouse liver assessed per mg of protein at 3 mg/kg, po after 30 days (reference value: 41.66+/-1.33 U); format: functional
Mus musculus [15] = experiment: Increase of TRxR level in Swiss albino mouse liver assessed per mg of protein at 3 mg/kg, po after 30 days (reference value: 3.20+/-0.134 U); format: functional
Mus musculus [16] = experiment: Increase of Gpx level in Swiss albino mouse liver assessed as NADPH oxidation per mg of protein at 3 mg/kg, po after 30 days (reference value: 0.646+/-0.030 umol); format: functional
Mus musculus [17] = experiment: Nephrotoxicity in Swiss albino mouse assessed as inflammation at 3 mg/kg, po after 30 days by histopathology analysis; format: toxicity, organism-based; design: dose 3 mg/kg, route oral; conditions: in vivo, 720 h
Mus musculus [18] = experiment: Nephrotoxicity in Swiss albino mouse assessed as lesion at 3 mg/kg, po after 30 days by histopathology analysis; format: toxicity, organism-based; design: dose 3 mg/kg, route oral; conditions: in vivo, 720 h
Mus musculus [19] = experiment: Hepatotoxicity in Swiss albino mouse assessed as inflammation at 3 mg/kg, po after 30 days by histopathology analysis; format: toxicity, organism-based; design: dose 3 mg/kg, route oral; conditions: in vivo, 720 h
Mus musculus [20] = experiment: Hepatotoxicity in Swiss albino mouse assessed as lesion at 3 mg/kg, po after 30 days by histopathology analysis; format: toxicity, organism-based; design: dose 3 mg/kg, route oral; conditions: in vivo, 720 h
Mus musculus [21] = experiment: Nephrotoxicity in Swiss albino mouse assessed as necrosis at 3 mg/kg, po after 30 days by histopathology analysis; format: toxicity, organism-based; design: dose 3 mg/kg, route oral; conditions: in vivo, 720 h
Mus musculus [22] = experiment: Increase of TRxR level in Swiss albino mouse liver assessed per mg of protein at 3 mg/kg, po after 30 days relative to control; format: functional
Mus musculus [23] = experiment: Increase of Gpx level in Swiss albino mouse liver assessed as NADPH oxidation per mg of protein at 3 mg/kg, po after 30 days relative to control; format: functional
Mus musculus [24] = experiment: Hepatotoxicity in Swiss albino mouse assessed as necrosis at 3 mg/kg, po after 30 days by histopathology analysis; format: toxicity, organism-based; design: dose 3 mg/kg, route oral; conditions: in vivo, 720 h
Mus musculus [25] = experiment: Hepatotoxicity in Swiss albino mouse assessed as TBARS production per mg of protein at 1.2 mg/kg, po after 30 days (reference value: 0.26+/-0.02 nmol); format: toxicity, organism-based; design: dose 1.2 mg/kg, route oral; conditions: in vivo, 720 h
Mus musculus [26] = experiment: Hepatotoxicity in Swiss albino mouse assessed as plasma ALT level at 1.2 mg/kg, po after 30 days (reference value: 66.00+/-4.18 U/mL); format: toxicity, organism-based; design: dose 1.2 mg/kg, route oral; conditions: in vivo, 720 h
Mus musculus [27] = experiment: Increase of TRxR level in Swiss albino mouse liver assessed per mg of protein at 1.2 mg/kg, po after 30 days (reference value: 3.20+/-0.134 U); format: functional
Mus musculus [28] = experiment: Toxicity in Swiss albino mouse assessed as hemoglobin level at 1.2 mg/kg, po after 30 days (reference value: 12.56+/-0.43 gm/dL); format: organism-based; design: dose 1.2 mg/kg, route oral; conditions: in vivo, 720 h
Mus musculus [29] = experiment: Increase of GSH level in Swiss albino mouse liver assessed per mg of protein at 1.2 mg/kg, po after 30 days (reference value: 46.87+/-1.88 nmol); format: functional
Mus musculus [30] = experiment: Nephrotoxicity in Swiss albino mouse assessed as serum creatinine level at 1.2 mg/kg, po after 30 days (reference value: 9.40+/-0.48 mg/dL); format: toxicity, organism-based; design: dose 1.2 mg/kg, route oral; conditions: in vivo, 720 h
Mus musculus [31] = experiment: Increase of Gpx level in Swiss albino mouse liver assessed as NADPH oxidation per mg of protein at 1.2 mg/kg, po after 30 days (reference value: 0.646+/-0.030 umol); format: functional
Mus musculus [32] = experiment: Hepatotoxicity in Swiss albino mouse assessed as infiltration of mononuclear cells at 1.2 mg/kg after 30 days by histopathology analysis; format: toxicity, organism-based; design: dose 1.2 mg/kg; conditions: in vivo, 720 h
[33] = Induction of chromosomal aberration in Swiss albino mouse bone marrow cell at 1.2 mg/kg, po after 30 days (reference value: 14.88+/-0.99 %); format: organism-based; design: dose 1.2 mg/kg, route oral; conditions: in vivo, 720 h
Mus musculus [34] = experiment: Hepatotoxicity in Swiss albino mouse assessed as plasma AST level at 1.2 mg/kg, po after 30 days (reference value: 179.00+/-4.18 U/mL); format: toxicity, organism-based; design: dose 1.2 mg/kg, route oral; conditions: in vivo, 720 h
Mus musculus [35] = experiment: Increase of CAT level in Swiss albino mouse liver assessed per mg of protein at 1.2 mg/kg, po after 30 days (reference value: 41.66+/-1.33 U); format: functional
Mus musculus [36] = experiment: Nephrotoxicity in Swiss albino mouse assessed as BUN level at 1.2 mg/kg, po after 30 days (reference value: 21.57+/-0.92 mg/dL); format: toxicity, organism-based; design: dose 1.2 mg/kg, route oral; conditions: in vivo, 720 h
Mus musculus [37] = experiment: Increase of GST level in Swiss albino mouse liver assessed as CDNB-GSH conjugate per mg of protein at 1.2 mg/kg, po after 30 days (reference value: 95.66+/-4.0 nmol/min); format: functional
Mus musculus [38] = experiment: Increase of SOD level in Swiss albino mouse liver assessed per mg of protein at 1.2 mg/kg, po after 30 days (reference value: 250.16+/-7.46 U); format: functional
Mus musculus [39] = experiment: Nephrotoxicity in Swiss albino mouse assessed as infiltration of mononuclear cells at 1.2 mg/kg after 30 days by histopathology analysis; format: toxicity, organism-based; design: dose 1.2 mg/kg; conditions: in vivo, 720 h

SMILES	Activity (Mus musculus [1])	LD50 [2]	Activity (Mus musculus [3])	Activity (Mus musculus [4])	Activity (Mus musculus [5])	Activity (Mus musculus [6])	Activity (Mus musculus [7])	Activity (Mus musculus [8])	Activity (Mus musculus [9])	Activity (Mus musculus [10])	Activity (Mus musculus [11])	Activity [12]	Activity (Mus musculus [13])	Activity (Mus musculus [14])	Activity (Mus musculus [15])	Activity (Mus musculus [16])	other results
N#C[Se]CCCCCN1C(=O)c2cccc3cccc(c23)C1=O	61 U/ml	> 1000 mg/kg	50.94 nM	160 U/ml	Non-toxic	Toxic	0.24 nM	13.08 g/dL	6.4 mg/dL	160 mg/dL	104.41 nM	13.39%	258.56 U	45.48 U	4.61 U	0.864 U	–
N#C[Se]CCCCCN1C(=O)c2cccc3c(Cl)ccc(c23)C1=O	64 U/ml	> 1000 mg/kg	59.34 nM	142 U/ml	Non-toxic	Toxic	0.26 nM	12.86 g/dL	7.45 mg/dL	142 mg/dL	106.58 nM	13.97%	268.71 U	46.6 U	4.21 U	0.995 U	–
N#C[Se]CCCCCN1C(=O)c2cccc3cc([N+](=O)[O-])cc(c23)C1=O	62 U/ml	> 1000 mg/kg	55.82 nM	154 U/ml	Non-toxic	Toxic	0.25 nM	12.76 g/dL	7.86 mg/dL	–	97.29 nM	13.85%	267.68 U	44.06 U	4.15 U	0.938 U	–
N#C[Se]CCCCCN1C(=O)c2cccc3c(N)ccc(c23)C1=O	59 U/ml	> 1000 mg/kg	60.4 nM	148 U/ml	Non-toxic	Toxic	0.22 nM	13.24 g/dL	7.13 mg/dL	148 mg/dL	116.19 nM	12.7%	296.03 U	53.04 U	–	–	Activity (Mus musculus [17]): Non-toxic; Activity (Mus musculus [18]): Non-toxic; Activity (Mus musculus [19]): Non-toxic; Activity (Mus musculus [20]): Non-toxic; Activity (Mus musculus [21]): Non-toxic; Activity (Mus musculus [22]): 53.43%; Activity (Mus musculus [23]): 63.77%; Activity (Mus musculus [24]): Non-toxic
O=[Se]([O-])[O-].[Na+].[Na+] [SODIUM SELENITE]	–	25 mg/kg	–	–	–	–	–	–	–	–	–	–	–	–	–	–	Activity (Mus musculus [25]): 0.3 nM; Activity (Mus musculus [26]): 72 U/ml; Activity (Mus musculus [27]): 3.75 U; Activity (Mus musculus [28]): 11.28 g/dL; Activity (Mus musculus [29]): 44.84 nM; Activity (Mus musculus [30]): 8.47 mg/dL; Activity (Mus musculus [31]): 0.692 U; Activity (Mus musculus [32]): Toxic; Activity [33]: 16.4%; Activity (Mus musculus [34]): 191 U/ml; Activity (Mus musculus [35]): 36.6 U; Activity (Mus musculus [36]): 22.6 mg/dL; Activity (Mus musculus [37]): 85.31 nM; Activity (Mus musculus [38]): 236.98 U; Activity (Mus musculus [39]): Toxic
